Experimental data: patent US20060148858A1, “1, 2-Azole derivatives with hypoglycemic and hypolipidemic activity” (priority 2002, published 2006)
Like-named read-outs stand apart in the source and are kept apart here.

Legend:
PPARγ-RXRα heterodimer = target: T1, PPARγ-RXRα heterodimer (Homo sapiens, UniProt P37231); test: PPARγ-RXRα heterodimer ligand activity, luciferase reporter in PPARγ:RXRα:4ERPP/CHO-K1 cells (Test Example 3); type: cell-based; details: 18-48 hours, concentration for 50% of the maximum fold induction
T1 construct: expressed in transfected cells; host or cells: CHO-K1
T1 sequence (P37231 1-477 isoform P37231-2): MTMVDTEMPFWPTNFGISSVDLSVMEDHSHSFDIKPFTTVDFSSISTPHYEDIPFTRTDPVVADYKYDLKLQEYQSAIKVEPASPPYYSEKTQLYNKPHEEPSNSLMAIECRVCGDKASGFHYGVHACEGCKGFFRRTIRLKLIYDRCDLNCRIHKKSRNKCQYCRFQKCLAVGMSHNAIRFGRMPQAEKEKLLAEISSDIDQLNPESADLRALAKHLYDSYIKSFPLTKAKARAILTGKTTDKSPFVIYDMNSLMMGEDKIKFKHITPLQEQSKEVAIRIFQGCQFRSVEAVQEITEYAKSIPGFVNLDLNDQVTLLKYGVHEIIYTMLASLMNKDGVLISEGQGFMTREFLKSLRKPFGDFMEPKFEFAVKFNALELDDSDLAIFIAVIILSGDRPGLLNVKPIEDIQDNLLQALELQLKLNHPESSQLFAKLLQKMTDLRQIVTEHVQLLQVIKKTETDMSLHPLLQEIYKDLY
T1 sequence (P19793 1-462 partner): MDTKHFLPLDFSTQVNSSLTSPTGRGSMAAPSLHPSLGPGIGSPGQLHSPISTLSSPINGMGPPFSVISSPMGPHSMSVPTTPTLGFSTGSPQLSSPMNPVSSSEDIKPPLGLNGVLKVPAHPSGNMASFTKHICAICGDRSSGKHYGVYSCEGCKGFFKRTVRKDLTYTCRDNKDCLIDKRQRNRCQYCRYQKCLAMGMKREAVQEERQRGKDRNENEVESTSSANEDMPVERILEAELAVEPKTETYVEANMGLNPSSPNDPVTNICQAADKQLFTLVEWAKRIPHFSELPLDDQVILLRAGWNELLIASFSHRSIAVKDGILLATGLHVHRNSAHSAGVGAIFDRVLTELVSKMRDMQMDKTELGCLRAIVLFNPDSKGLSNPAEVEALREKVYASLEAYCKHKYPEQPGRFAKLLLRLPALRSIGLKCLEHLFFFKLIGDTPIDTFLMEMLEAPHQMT
Description: A PPARγ: RXRα: 4ERPP/CHO-K1 cells obtained in Reference Example 8a described later were cultured in HAM F12 medium (produced by Life Technologies, Inc., USA) containing 10% Fetal bovine serum (produced by Life Technologies, Inc., USA) and then inoculated to a 96-well white plate (produced by Corning Costar Corporation, USA) at the density of 2×10^4 cells/well, and cultured in a CO2 gas incubator at 37° C. overnight.
After removing the medium from 96 well white plate, 80 μl of HAM F12 medium containing 0.1% fatty acid-free bovine serum albumin (BSA) and 20 μl of test compound were added, which was cultured in a CO2 gas incubator at 37° C. for 18-48 hours. After removing the medium, 40 μl of PIKKAGENE 7.5 (produced by Wako Pure Chemical Industries, Ltd.) diluted twice with HBSS (HANKS' BALANCED SALT SOLUTION)(produced by BIO WHITTAKER Inc., USA), was added. After stirring, the luciferase activity was determined using 1420 ARVO Multilabel Counter (produced by PerkinElmer Inc., USA).
A fold induction was calculated based on the luciferase activity of each test compound by taking the luciferase activity in the non-treatment group as 1. The values of the test compound concentration and the fold induction were analyzed using PRISM (produced by GraphPad Software Inc. USA) to calculate the EC50 values, the effective concentration of a test compound for 50% of the maximum fold induction.
After a CHO-K1 cell cultured in a 150 cm^2 cell culture flask (750 ml)(produced by Corning Costar Corporation, USA) containing HAM F12 medium (produced by Life Technologies, Inc., USA) supplemented with 10% Fetal Bovine Serum (produced by Life Technologies, Inc., USA) was scraped by treating with 0.5 g/L trypsin-0.2 g/L EDTA (ethylenediaminetetraacetic acid) (produced by Life Technologies, Inc., USA), the cell was washed with PBS (phosphate-buffered saline) (produced by Life Technologies, Inc., USA), centrifuged (1000 rpm, 5 minutes), and then suspended in PBS. Subsequently, a DNA was introduced into the cell under the condition shown below using GENE PULSER (produced by Bio-Rad Laboratories, USA).
Namely, to a cuvette having a 0.4 cm gap, added were 8×10^6 cells and 10 μg of plasmid pVgRXR2-hPPARγ obtained in Reference Example 7a and 10 μg of reporter plasmid pGL3-4ERPP-TK neo obtained in Reference Example 5a, which was subjected to electroporation at the voltage of 0.25 kV under the capacitance of 960 μF. Subsequently, the cell was transferred into a HAM F12 medium containing 10% Fetal Bovine Serum and cultured for 24 hours and then the cell was scraped again and centrifuged, and then suspended in HAM F12 medium containing 10% Fetal Bovine Serum supplemented with 500 μg/ml of GENETICIN (produced by Life Technologies, Inc., USA) and 250 μg/ml of ZEOCIN (produced by Invitrogen, USA). The obtained suspension was diluted to the density of 10^4 cells/ml and inoculated to a 96-well plate (produced by Corning Costar Corporation, USA), which was cultured in a CO2 gas incubator at 37° C., whereby obtaining a GENETICIN- and ZEOCIN-resistant transformant.
Subsequently, after the transformant cell line thus obtained was cultured in a 24-well plate (produced by Corning Costar Corporation, USA), selected was a cell line in which the luciferase was expressed and induced, i.e., PPARγ:RXRα:4ERPP/CHO-K1 cell by addition of 10 μM of pioglitazone hydrochloride.

KKAY mice = test: Hypoglycemic and hypolipidemic actions in mice (Test Example 1); type: in vivo; details: Mus musculus, po, 96 h, 0.005% in powdery diet, four days, non-treated group taken as 100%
Description: Test compounds were mixed in a powdery diet (CE-2, Japan Clea) at the concentration of 0.005%, and freely given to KKAY mice (9 to 12 weeks old, 5 mice in a group), a model of obese and non-insulin dependent diabetes (type 2 diabetes), for four days. During this period, water was given freely. Blood was sampled from orbital venous plexus, and glucose and triglyceride levels in plasma separated from blood were determined enzymatically using L type Wako Glu2 (Wako Pure Chemical Industries, Ltd.) or L type Wako TG·H (Wako Pure Chemical Industries, Ltd.), respectively.
In the table, “hypoglycemic action (%)” means the rate of decrease (%) in the blood glucose level of the treated group when the blood glucose level of the non-treated group is taken as 100%. In addition, the “hypolipidemic action (%)” means the rate of decrease (%) in the blood triglyceride level of the treated group when the blood triglyceride level of the non-treated group is taken as 100%.

[1] = rate of decrease in blood glucose level, read-out: Hypoglycemic action (%)
[2] = rate of decrease in blood triglyceride level, read-out: Hypolipidemic action (%)

SMILES | EC50 (PPARγ-RXRα heterodimer) | melting point | inhibition in vivo at 0.005 % in diet (KKAY mice; [1]) | inhibition in vivo at 0.005 % in diet (KKAY mice; [2])
CCCc1nn(-c2ccc(C(F)(F)F)cn2)cc1CCCCn1cc(CCC(=O)O)c(-c2ccc(F)cc2)n1 [Example 77, 3-[3-(4-fluorophenyl)-1-(4-{3-propyl-1-[5-(trifluoromethyl)-2-pyridinyl]-1H-pyrazol-4-yl}butyl)-1H-pyrazol-4-yl]propanoic acid] | 21 nM | 119 to 121 °C | – | –
COc1cccc(CC(=O)O)c1OCCCc1cn(-c2ccc(C(F)(F)F)cn2)nc1-c1ccccc1 [Example 196] | 42 nM | 134 to 135 °C | – | –
CCCCc1nn(-c2ccc(C(F)(F)F)cn2)cc1CCCOc1c(CC(=O)O)cccc1OC [Example 197, [2-(3-{3-butyl-1-[5-(trifluoromethyl)-2-pyridyl]-1H-pyrazol-4-yl}propoxy)-3-methoxyphenyl]acetic acid] | 22 nM | 121 to 122 °C | 45% | 65%
CCCCc1nn(-c2ccc(C(F)(F)F)cn2)cc1CCCOc1ccccc1CC(=O)O [Example 198, [2-(3-{3-butyl-1-[5-(trifluoromethyl)-2-pyridyl]-1H-pyrazol-4-yl}propoxy)phenyl]acetic acid] | 30 nM | 106 to 107 °C | – | –
O=C(O)Cc1cccc(F)c1OCCCc1cn(-c2ccc(C(F)(F)F)cn2)nc1C1CCCCC1 [Example 210, [2-(3-{3-cyclohexyl-1-[5-(trifluoromethyl)-2-pyridyl]-1H-pyrazol-4-yl}propoxy)-3-fluorophenyl]acetic acid] | 16 nM | 149 to 150 °C | – | –
CCC(CC)c1nn(-c2ccc(C(F)(F)F)cn2)cc1CCCOc1c(F)cccc1CC(=O)O [Example 214, [2-(3-{3-(1-ethylpropyl)-1-[5-(trifluoromethyl)-2-pyridyl]-1H-pyrazol-4-yl}propoxy)-3-fluorophenyl]acetic acid] | 18 nM | 102 to 103 °C | 44% | 52%
CCC(CC)c1nn(-c2ccc(C(F)(F)F)cn2)cc1CCCOc1ccccc1CC(=O)O [Example 215, [2-(3-{3-(1-ethylpropyl)-1-[5-(trifluoromethyl)-2-pyridyl]-1H-pyrazol-4-yl}propoxy)phenyl]acetic acid] | 20 nM | 65 to 66 °C | 50% | 45%
CCC(C)c1nn(-c2ccc(C(F)(F)F)cn2)cc1CCCOc1c(CC(=O)O)cccc1OC (centres unmarked) [Example 216, [3-methoxy-2-(3-{3-(1-methylpropyl)-1-[5-(trifluoromethyl)-2-pyridyl]-1H-pyrazol-4-yl}propoxy)phenyl]acetic acid] | 18 nM | 117 to 118 °C | 46% | 61%
COc1cccc(CC(=O)O)c1OCCCc1cn(-c2ccc(Br)cn2)nc1C(C)C [Example 218, (2-{3-[1-(5-bromo-2-pyridyl)-3-isopropyl-1H-pyrazol-4-yl]propoxy}-3-methoxyphenyl)acetic acid] | 51 nM | 152 to 153 °C | 34% | 43%
COc1cccc(CC(=O)O)c1OCCCc1cn(-c2ccc([N+](=O)[O-])cn2)nc1C(C)C [Example 270, (3-methoxy-2-{3-[3-isopropyl-1-(5-nitro-2-pyridyl)-1H-pyrazol-4-yl]propoxy}phenyl)acetic acid] | 99 nM | 161 to 162 °C | – | –
COc1cccc(CC(=O)O)c1OCCCc1cn(-c2ccc(C#N)cn2)nc1C(C)C [Example 271, (2-{3-[1-(5-cyano-2-pyridyl)-3-isopropyl-1H-pyrazol-4-yl]propoxy}-3-methoxyphenyl)acetic acid] | 30 nM | – | – | –
COc1cccc(CC(=O)O)c1OCCCc1cn(-c2ccc(F)cn2)nc1C(C)C [Example 273, (2-{3-[1-(5-fluoro-2-pyridyl)-3-isopropyl-1H-pyrazol-4-yl]propoxy}-3-methoxyphenyl)acetic acid] | 90 nM | 125 to 126 °C | – | –
COc1ccc(-n2cc(CCCOc3c(CC(=O)O)cccc3OC)c(C(C)C)n2)nn1 [Example 277, (3-methoxy-2-{3-[1-(6-methoxypyridazin-3-yl)-3-isopropyl-1H-pyrazol-4-yl]propoxy}phenyl)acetic acid] | 36 nM | 124 to 125 °C | – | –
CCOc1cccc(CC(=O)O)c1OCCCc1cn(-c2ccc(C(F)(F)F)cn2)nc1C1CCCCC1 [Example 306, [2-(3-{3-cyclohexyl-1-[5-(trifluoromethyl)-2-pyridinyl]-1H-pyrazol-4-yl}propoxy)-3-ethoxyphenyl]acetic acid] | 17 nM | 156 to 157 °C | – | –
COc1cccc(CC(=O)O)c1OCCCc1cn(-c2ccc(C(F)(F)F)cn2)nc1C1CCCCC1 [Example 307, [2-(3-{3-cyclohexyl-1-[5-(trifluoromethyl)-2-pyridinyl]-1H-pyrazol-4-yl}propoxy)-3-methoxyphenyl]acetic acid] | 23 nM | 140 to 141 °C | – | –
CCCCc1nn(-c2ccc(C(F)(F)F)cn2)cc1CCCOc1nn(CC)cc1CC(=O)O [Example 334, [3-(3-{3-butyl-1-[5-(trifluoromethyl)-2-pyridinyl]-1H-pyrazol-4-yl}propoxy)-1-ethyl-1H-pyrazol-4-yl]acetic acid] | 74 nM | 109 to 110 °C | – | –
